What all share (type): in vivo, male Wistar rats
Series [1] deals with insulin resistant high-fat diet-induced obese rats. In words: Extract supplementation in insulin resistant high-fat diet-induced obese rats: body weight, food intake, lipid profile, insulin resistance. Here is the method:
(§1) Extract supplementation. […] The HF fed rats were then sub-divided into four groups of three rats each, i.e. Group 1, negative control/pathological control, treated with distilled water; Group 2, positive control, treated with 150 mg/kg of standard drug metformin (Met); Groups 3 and 4, treated groups, received the P. minima extract at doses of 150 and 300 mg/kg, respectively. Normal control rats also received distilled water throughout the treatment for a period of 12 weeks. All the groups, except the control group, were on high-fat diet during the treatment period.
Blood and tissue collection and sample preparation. For biochemical analysis after 16 weeks of experimental diet, the blood samples were taken from the tail vein after an overnight fast, whereas after 12 weeks of treatment period, rats were subjected to anesthesia and blood was drawn by cardiac puncture. Liver and pancreas samples were prepared and stained with hematoxylin and eosin, as described by Castro and co-workers. The liver was excised and fixed in buffered formalin. […]
Biochemical measurements. […] Fasting blood glucose levels were measured using glucometer (Accu Chek Performa, Australia). Fasting insulin levels were quantified using ultra sensitive rat insulin ELISA kit (Crystal Chem, Downers Grove, USA). Insulin sensitivity was evaluated using Homeostatic Model Assessment (HOMA).

Series [2] concerns high-fat diet-induced obese rats. Nature of the series: Renal toxicity assessment after 12 weeks of treatment. The conditions noted are these: serum, 150 mg/kg, mean ± SE. Here is the method:
as §1
Blood and tissue collection and sample preparation. For biochemical analysis after 16 weeks of experimental diet, the blood samples were taken from the tail vein after an overnight fast, whereas after 12 weeks of treatment period, rats were subjected to anesthesia and blood was drawn by cardiac puncture. […]
Biochemical measurements. […] Fasting blood glucose levels were measured using glucometer (Accu Chek Performa, Australia). Fasting insulin levels were quantified using ultra sensitive rat insulin ELISA kit (Crystal Chem, Downers Grove, USA). Insulin sensitivity was evaluated using Homeostatic Model Assessment (HOMA). Serum total cholesterol, triglycerides, HDL, LDL, VLDL, urea, creatnine, AST, ALP, SGPT, and direct and total bilirubins were analysed using automatic analyser (Hitachi, Roche Diagnostics 902, Tokyo, Japan). […]

Series [3] has the same test system. In words: Liver toxicity assessment after 12 weeks of treatment. The conditions noted are these: serum, 150 mg/kg, mean ± SE. Here is the method: as §1
(§2) Blood and tissue collection and sample preparation. For biochemical analysis after 16 weeks of experimental diet, the blood samples were taken from the tail vein after an overnight fast, whereas after 12 weeks of treatment period, rats were subjected to anesthesia and blood was drawn by cardiac puncture. Liver and pancreas samples were prepared and stained with hematoxylin and eosin, as described by Castro and co-workers. The liver was excised and fixed in buffered formalin. The sectioned liver tissue segments were stained with hematoxylin-eosin (H-E) and observed under light microscope.
Biochemical measurements. Blood glucose, serum insulin, total cholesterol, triglycerides, HDL, LDL, very low density lipoproteins ([…]), urea, creatnine, aspartate aminotransferase ([…]), alkaline phosphatase (ALP), serum glutamic pyruvic transaminase (SGPT), and direct and total bilirubin were estimated. Fasting blood glucose levels were measured using glucometer (Accu Chek Performa, Australia). Fasting insulin levels were quantified using ultra sensitive rat insulin ELISA kit (Crystal Chem, Downers Grove, USA). Insulin sensitivity was evaluated using Homeostatic Model Assessment (HOMA). Serum total cholesterol, triglycerides, HDL, LDL, VLDL, urea, creatnine, AST, ALP, SGPT, and direct and total bilirubins were analysed using automatic analyser (Hitachi, Roche Diagnostics 902, Tokyo, Japan).
Evaluation of renal and liver toxicity of P. minima extract: Serum urea, creatnine, aspartate aminotransferase ([…]), alkaline phosphatase (ALP), serum glutamic pyruvic transaminase (SGPT), and total and direct bilirubins were measured to evaluate the toxicity of P. minima towards liver and kidney.

The test system is the same in series [4]. In words: Histopathology of liver (H&E staining, light microscopy). The conditions noted are these: metformin 150 mg/kg; P. minima 150 and 300 mg/kg; versus pathological control (FIG. 8). As for the experimental part:
as §1, §2

In the case of `CN(C)C(=N)N=C(N)N` [Metformin], the “reduction in body weights” value in series [1] (150 mg/kg daily, 12 weeks, on high-fat diet, pathological control gained about 109 g, control 75 g) is recorded as ~35 g. Further, the average food intake result in series [1] (supplemented groups, 12 weeks of treatment, high-fat diet rats) is “Decrease”. Further, in series [2], the Creatnine was determined as 0.35 ± 0 mg/dL and the Urea was 31 ± 0 mg/dL. Moreover, in series [3], the ALP was 49.5 ± 1.5 U/L, the “AST (aspartate aminotransferase)” value was determined as 1.5 ± 0.5 U/L, the Direct bilirubin came out at 0.02 ± 0 mg/dL and the SGPT turned out to be 48.5 ± 1.5 U/L. The same compound returned a Total bilirubin in series [3] of 0.275 ± 0.025 mg/dL. In series [4], the “hepatic steatosis (liver morphology, H&E)” value is listed as “reversed the condition to the normal”.
